From the NIST ThermoML archive (doi:10.1016/j.fluid.2007.07.065)
± gives the expanded uncertainty stated by the source.

Conditions: Crystal; Heating/Cooling curves

Row | SMILES | Normal melting temperature [°C]
1 | NC=O [formamide] | 2.39 ± 0.1
2 | CCC(=O)O [propanoic acid] | -20.61 ± 0.1
3 | CC(=O)O [acetic acid] | 16.69 ± 0.1
